{
  "source": "ChEMBL document CHEMBL1154751",
  "about": "“Evaluation of di-sansalvamide A derivatives: synthesis, structure-activity relationship, and mechanism of action” (J Med Chem, 2009)",
  "key": {"[1]": {"assay": "Growth inhibition of human PL45 cells at 250 nM after 24 hrs by [3H]thymidine uptake assay", "type": "functional", "conditions": "read-out: GI"}, "[2]": {"assay": "Growth inhibition of human WS1 cells at 500 nM after 24 hrs by [3H]thymidine uptake assay", "type": "functional", "conditions": "read-out: GI"}, "[3]": {"assay": "Growth inhibition of human WS1 cells at 1 nM after 24 hrs by [3H]thymidine uptake assay", "type": "functional", "conditions": "read-out: GI"}, "[4]": {"assay": "Growth inhibition of human PL45 cells at 125 nM after 24 hrs by [3H]thymidine uptake assay", "type": "functional", "conditions": "read-out: GI"}, "[5]": {"assay": "Growth inhibition of human PL45 cells at 1 nM after 24 hrs by [3H]thymidine uptake assay", "type": "functional", "conditions": "read-out: GI"}, "[6]": {"assay": "Growth inhibition of human WS1 cells at 62.5 nM after 24 hrs by [3H]thymidine uptake assay", "type": "functional", "conditions": "read-out: GI"}, "HCT-116 [7]": {"test_system": "HCT-116", "assay": "Growth inhibition of human HCT116 cells at 20 nM after 24 hrs by [3H]thymidine uptake assay", "type": "functional", "conditions": "read-out: GI"}, "HCT-116 [8]": {"test_system": "HCT-116", "assay": "Growth inhibition of human HCT116 cells at 200 nM after 24 hrs by [3H]thymidine uptake assay", "type": "functional", "conditions": "read-out: GI"}, "HCT-116 [9]": {"test_system": "HCT-116", "assay": "Growth inhibition of human HCT116 cells at 100 nM after 24 hrs by [3H]thymidine uptake assay", "type": "functional", "conditions": "read-out: GI"}, "[10]": {"assay": "Growth inhibition of human WS1 cells at 1000 nM after 24 hrs by [3H]thymidine uptake assay", "type": "functional", "conditions": "read-out: GI"}, "[11]": {"assay": "Growth inhibition of human PL45 cells at 62.5 nM after 24 hrs by [3H]thymidine uptake assay", "type": "functional", "conditions": "read-out: GI"}, "[12]": {"assay": "Growth inhibition of human PL45 cells after 24 hrs by [3H]thymidine uptake assay", "type": "functional, cell-based"}, "HCT-116 [13]": {"test_system": "HCT-116", "assay": "Growth inhibition of human HCT116 cells at 10 nM after 24 hrs by [3H]thymidine uptake assay", "type": "functional", "conditions": "read-out: GI"}, "HCT-116 [14]": {"test_system": "HCT-116", "assay": "Growth inhibition of human HCT116 cells at 50 nM after 24 hrs by [3H]thymidine uptake assay", "type": "functional", "conditions": "read-out: GI"}, "[15]": {"assay": "Growth inhibition of human WS1 cells at 125 nM after 24 hrs by [3H]thymidine uptake assay", "type": "functional", "conditions": "read-out: GI"}, "[16]": {"assay": "Growth inhibition of human WS1 cells after 24 hrs by [3H]thymidine uptake assay", "type": "functional, cell-based"}, "[17]": {"assay": "Growth inhibition of human PL45 cells at 1000 nM after 24 hrs by [3H]thymidine uptake assay", "type": "functional", "conditions": "read-out: GI"}, "HCT-116 [18]": {"test_system": "HCT-116", "assay": "Growth inhibition of human HCT116 cells after 24 hrs by [3H]thymidine uptake assay", "type": "functional, cell-based"}, "[19]": {"assay": "Growth inhibition of human PL45 cells at 500 nM after 24 hrs by [3H]thymidine uptake assay", "type": "functional", "conditions": "read-out: GI"}, "[20]": {"assay": "Growth inhibition of human WS1 cells at 250 nM after 24 hrs by [3H]thymidine uptake assay", "type": "functional", "conditions": "read-out: GI"}},
  "data": [
    {"smiles": "C=CCNC1=C2C[C@@H](C)C[C@H](OC)[C@H](O)[C@@H](C)/C=C(\\C)[C@H](OC(N)=O)[C@@H](OC)/C=C\\C=C(/C)C(=O)NC(=CC1=O)C2=O", "note": "[TANESPIMYCIN]", "values": [
      {"measurement": "inhibition of growth at 0.25 µM", "setting": "[1]", "value": 99, "unit": "%"},
      {"measurement": "inhibition of growth at 0.5 µM", "setting": "[2]", "value": 76.3, "unit": "%"},
      {"measurement": "inhibition of growth at 0.001 µM", "setting": "[3]", "value": 18, "unit": "%"},
      {"measurement": "inhibition of growth at 0.125 µM", "setting": "[4]", "value": 99, "unit": "%"},
      {"measurement": "inhibition of growth at 0.001 µM", "setting": "[5]", "value": 11.4, "unit": "%"},
      {"measurement": "inhibition of growth at 0.0625 µM", "setting": "[6]", "value": 51.7, "unit": "%"},
      {"measurement": "inhibition of growth at 0.02 µM", "setting": "HCT-116 [7]", "value": 12, "unit": "%"},
      {"measurement": "inhibition of growth at 0.2 µM", "setting": "HCT-116 [8]", "value": 79, "unit": "%"},
      {"measurement": "inhibition of growth at 0.1 µM", "setting": "HCT-116 [9]", "value": 72, "unit": "%"},
      {"measurement": "inhibition of growth at 1 µM", "setting": "[10]", "value": 77.8, "unit": "%"},
      {"measurement": "inhibition of growth at 0.0625 µM", "setting": "[11]", "value": 98, "unit": "%"},
      {"measurement": "IC50", "setting": "[12]", "value": 7.7, "unit": "nM"},
      {"measurement": "inhibition of growth at 0.01 µM", "setting": "HCT-116 [13]", "value": 0, "unit": "%"},
      {"measurement": "inhibition of growth at 0.05 µM", "setting": "HCT-116 [14]", "value": 54, "unit": "%"},
      {"measurement": "inhibition of growth at 0.125 µM", "setting": "[15]", "value": 73.2, "unit": "%"},
      {"measurement": "IC50", "setting": "[16]", "value": 31.8, "unit": "nM"},
      {"measurement": "inhibition of growth at 1 µM", "setting": "[17]", "value": 99, "unit": "%"},
      {"measurement": "IC50", "setting": "HCT-116 [18]", "value": 56.5, "unit": "nM"},
      {"measurement": "inhibition of growth at 0.5 µM", "setting": "[19]", "value": 99, "unit": "%"},
      {"measurement": "inhibition of growth at 0.25 µM", "setting": "[20]", "value": 66, "unit": "%"}
    ]}
  ]
}
